Calls of active or inactive are those of the source.
Tests used:
[1] = target: T1, Long-chain-fatty-acid--CoA ligase 5 (Homo sapiens, UniProt Q9ULC5)
T1 sequence (Q9ULC5 whole entry): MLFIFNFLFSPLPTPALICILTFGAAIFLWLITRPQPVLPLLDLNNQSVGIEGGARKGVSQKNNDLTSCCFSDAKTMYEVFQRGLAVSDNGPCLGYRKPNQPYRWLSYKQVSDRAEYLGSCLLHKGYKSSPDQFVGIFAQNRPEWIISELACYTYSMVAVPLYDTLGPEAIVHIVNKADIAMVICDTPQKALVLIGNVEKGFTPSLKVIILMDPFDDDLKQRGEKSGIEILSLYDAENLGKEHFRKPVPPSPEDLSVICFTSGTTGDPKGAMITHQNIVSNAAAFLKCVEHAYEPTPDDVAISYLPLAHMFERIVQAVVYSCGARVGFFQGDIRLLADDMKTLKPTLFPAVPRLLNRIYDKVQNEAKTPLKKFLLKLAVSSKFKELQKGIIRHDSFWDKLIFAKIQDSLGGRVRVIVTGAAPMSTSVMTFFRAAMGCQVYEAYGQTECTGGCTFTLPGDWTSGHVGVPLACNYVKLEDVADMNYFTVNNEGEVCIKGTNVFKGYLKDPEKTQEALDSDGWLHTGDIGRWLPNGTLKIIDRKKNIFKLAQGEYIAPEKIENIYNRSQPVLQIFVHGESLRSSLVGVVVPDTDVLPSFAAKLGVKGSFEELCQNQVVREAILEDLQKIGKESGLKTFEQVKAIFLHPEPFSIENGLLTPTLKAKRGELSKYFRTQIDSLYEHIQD

[2] = target: Myosin light chain kinase, smooth muscle (Homo sapiens, UniProt Q15746)
Myosin light chain kinase, smooth muscle, sequence (Q15746 whole entry): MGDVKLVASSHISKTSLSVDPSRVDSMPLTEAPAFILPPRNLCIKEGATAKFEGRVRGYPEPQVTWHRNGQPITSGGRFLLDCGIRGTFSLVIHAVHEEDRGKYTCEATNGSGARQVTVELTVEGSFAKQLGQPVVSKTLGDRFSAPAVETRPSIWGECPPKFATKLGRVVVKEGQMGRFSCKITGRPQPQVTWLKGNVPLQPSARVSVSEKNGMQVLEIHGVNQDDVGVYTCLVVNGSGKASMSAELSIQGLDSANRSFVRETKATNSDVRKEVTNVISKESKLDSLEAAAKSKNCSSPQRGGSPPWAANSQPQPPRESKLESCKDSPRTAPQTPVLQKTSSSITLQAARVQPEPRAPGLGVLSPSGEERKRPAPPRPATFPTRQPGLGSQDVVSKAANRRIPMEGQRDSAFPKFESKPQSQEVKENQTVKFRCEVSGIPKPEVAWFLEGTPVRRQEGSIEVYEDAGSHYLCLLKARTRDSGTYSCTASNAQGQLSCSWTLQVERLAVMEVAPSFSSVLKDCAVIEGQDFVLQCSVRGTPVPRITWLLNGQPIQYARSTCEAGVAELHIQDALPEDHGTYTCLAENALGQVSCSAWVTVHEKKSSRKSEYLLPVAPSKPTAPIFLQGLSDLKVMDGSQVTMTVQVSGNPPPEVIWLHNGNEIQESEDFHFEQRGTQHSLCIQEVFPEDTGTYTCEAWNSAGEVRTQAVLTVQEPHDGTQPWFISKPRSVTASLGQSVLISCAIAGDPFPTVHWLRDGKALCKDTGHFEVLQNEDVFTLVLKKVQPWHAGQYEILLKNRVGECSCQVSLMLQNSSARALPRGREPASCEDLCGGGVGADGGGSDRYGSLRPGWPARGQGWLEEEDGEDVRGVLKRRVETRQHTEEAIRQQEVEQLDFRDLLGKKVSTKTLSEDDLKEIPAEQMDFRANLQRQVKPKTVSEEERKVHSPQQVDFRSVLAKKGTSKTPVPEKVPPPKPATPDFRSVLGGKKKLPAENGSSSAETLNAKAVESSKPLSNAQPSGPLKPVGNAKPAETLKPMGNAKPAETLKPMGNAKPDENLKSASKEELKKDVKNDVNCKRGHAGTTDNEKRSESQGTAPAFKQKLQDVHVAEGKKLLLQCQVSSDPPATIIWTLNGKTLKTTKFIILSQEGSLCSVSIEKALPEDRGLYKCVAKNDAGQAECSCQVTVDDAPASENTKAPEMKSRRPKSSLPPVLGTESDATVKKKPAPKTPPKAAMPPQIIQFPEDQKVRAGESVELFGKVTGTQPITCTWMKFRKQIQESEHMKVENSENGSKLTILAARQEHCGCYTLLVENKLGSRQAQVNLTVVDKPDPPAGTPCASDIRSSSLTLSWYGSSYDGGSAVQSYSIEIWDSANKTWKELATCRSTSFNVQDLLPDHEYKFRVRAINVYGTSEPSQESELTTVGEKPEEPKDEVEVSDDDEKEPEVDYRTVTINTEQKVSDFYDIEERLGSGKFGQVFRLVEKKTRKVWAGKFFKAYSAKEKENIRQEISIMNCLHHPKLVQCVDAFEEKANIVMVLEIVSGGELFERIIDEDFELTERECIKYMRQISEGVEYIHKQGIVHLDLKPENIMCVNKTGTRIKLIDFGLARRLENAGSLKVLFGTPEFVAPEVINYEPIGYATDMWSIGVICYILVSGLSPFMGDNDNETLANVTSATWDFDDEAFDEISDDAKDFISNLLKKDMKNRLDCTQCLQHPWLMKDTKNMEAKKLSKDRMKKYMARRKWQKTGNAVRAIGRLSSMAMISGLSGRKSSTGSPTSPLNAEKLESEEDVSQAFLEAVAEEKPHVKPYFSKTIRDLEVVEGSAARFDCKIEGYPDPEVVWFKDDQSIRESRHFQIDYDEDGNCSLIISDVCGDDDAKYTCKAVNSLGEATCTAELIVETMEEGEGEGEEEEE

Septin-9 = target: T2, Septin-9 (Homo sapiens, UniProt Q9UHD8)
T2 sequence (Q9UHD8 whole entry): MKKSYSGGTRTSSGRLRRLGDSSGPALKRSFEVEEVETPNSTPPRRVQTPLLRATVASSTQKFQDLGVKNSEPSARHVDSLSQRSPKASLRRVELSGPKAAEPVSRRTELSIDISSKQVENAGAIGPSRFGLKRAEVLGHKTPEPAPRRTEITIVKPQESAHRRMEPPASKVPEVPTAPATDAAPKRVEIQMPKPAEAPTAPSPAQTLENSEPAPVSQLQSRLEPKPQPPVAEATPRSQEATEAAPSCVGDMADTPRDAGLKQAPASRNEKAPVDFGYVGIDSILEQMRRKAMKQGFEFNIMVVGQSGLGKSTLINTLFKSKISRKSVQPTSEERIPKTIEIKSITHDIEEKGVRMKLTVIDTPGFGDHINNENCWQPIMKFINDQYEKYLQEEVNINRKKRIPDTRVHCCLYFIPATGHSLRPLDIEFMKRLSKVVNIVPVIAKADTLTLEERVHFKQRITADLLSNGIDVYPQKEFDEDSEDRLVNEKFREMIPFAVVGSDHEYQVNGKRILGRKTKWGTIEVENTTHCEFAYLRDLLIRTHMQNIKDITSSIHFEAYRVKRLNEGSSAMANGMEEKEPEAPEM

[3] = target: T3, DNA replication licensing factor MCM4 (Homo sapiens, UniProt P33991)
T3 sequence (P33991 whole entry): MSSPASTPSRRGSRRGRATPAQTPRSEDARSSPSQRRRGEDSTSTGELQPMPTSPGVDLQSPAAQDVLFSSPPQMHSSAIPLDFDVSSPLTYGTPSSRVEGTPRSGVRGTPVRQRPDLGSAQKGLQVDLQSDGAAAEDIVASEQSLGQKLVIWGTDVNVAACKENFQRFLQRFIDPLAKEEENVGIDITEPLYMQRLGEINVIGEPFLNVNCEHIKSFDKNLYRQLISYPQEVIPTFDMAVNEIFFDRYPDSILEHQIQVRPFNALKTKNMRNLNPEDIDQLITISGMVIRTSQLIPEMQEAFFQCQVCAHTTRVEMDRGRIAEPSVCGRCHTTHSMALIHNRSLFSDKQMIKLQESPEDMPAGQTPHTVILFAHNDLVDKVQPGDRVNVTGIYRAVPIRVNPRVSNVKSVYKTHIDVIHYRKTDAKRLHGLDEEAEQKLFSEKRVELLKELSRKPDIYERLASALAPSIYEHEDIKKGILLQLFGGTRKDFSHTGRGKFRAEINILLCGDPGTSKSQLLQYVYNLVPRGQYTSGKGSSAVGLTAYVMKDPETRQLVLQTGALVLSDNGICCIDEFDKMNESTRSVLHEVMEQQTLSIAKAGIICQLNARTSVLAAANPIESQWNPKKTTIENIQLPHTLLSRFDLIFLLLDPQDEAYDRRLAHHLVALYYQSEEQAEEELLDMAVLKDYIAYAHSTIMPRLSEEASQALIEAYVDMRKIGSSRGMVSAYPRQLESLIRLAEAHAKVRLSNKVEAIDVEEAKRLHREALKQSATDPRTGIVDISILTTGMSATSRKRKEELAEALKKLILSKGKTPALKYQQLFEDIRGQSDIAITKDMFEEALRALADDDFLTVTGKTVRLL

[4] = target: T4, Probable ATP-dependent RNA helicase DDX6 (Homo sapiens, UniProt P26196)
T4 sequence (P26196 whole entry): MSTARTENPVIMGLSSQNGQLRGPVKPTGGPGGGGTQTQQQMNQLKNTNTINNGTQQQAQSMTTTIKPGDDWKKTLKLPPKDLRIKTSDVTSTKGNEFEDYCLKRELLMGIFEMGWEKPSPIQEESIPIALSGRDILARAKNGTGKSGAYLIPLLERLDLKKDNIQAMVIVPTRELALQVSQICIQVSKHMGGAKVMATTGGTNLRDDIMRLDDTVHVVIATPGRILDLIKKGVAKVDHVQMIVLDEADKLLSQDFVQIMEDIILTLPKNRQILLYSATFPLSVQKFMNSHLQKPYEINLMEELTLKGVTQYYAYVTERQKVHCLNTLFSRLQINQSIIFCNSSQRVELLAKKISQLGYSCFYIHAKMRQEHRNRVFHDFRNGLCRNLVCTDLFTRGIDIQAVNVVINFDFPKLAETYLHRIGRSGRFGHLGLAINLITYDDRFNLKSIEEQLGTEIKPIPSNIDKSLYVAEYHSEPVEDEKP

Measured: Kd
Also: in the data inactive means no Kd found up to 30 µM.

O=S(=O)(c1cccc2c(O)nccc12)N1CCCNCC1 [HYDROXYFASUDIL]
inactive: [1] > 30 µM | [2] > 30 µM | Septin-9 > 30 µM | [3] > 30 µM | [4] > 30 µM

Cc1c(Cn2c(C)nc3c(C(=O)O)cc(N4CCOCC4)cc32)cccc1C(F)(F)F [GSK-2636771]
inactive: [1] > 30 µM | [2] > 30 µM | Septin-9 > 30 µM | [3] > 30 µM | [4] > 30 µM

COc1cc2ncnc(Nc3ccc(O)cc3)c2cc1OC [WHI-P131]
inactive: [1] > 30 µM | [2] > 30 µM | Septin-9 > 30 µM | [3] > 30 µM | [4] > 30 µM

S=C(NCc1ccc2c(c1)OCO2)N1CCN(c2ncnc3c2oc2ccccc23)CC1 [AMUVATINIB]
inactive: [1] > 30 µM | [2] > 30 µM | Septin-9 > 30 µM | [3] > 30 µM | [4] > 30 µM

Cn1cc(-c2[nH]c3cc(NC(=O)[C@H](N)C4CCCCC4)cc4c3c2C=NNC4=O)cn1
inactive: [1] > 30 µM | [2] > 30 µM | Septin-9 > 30 µM | [3] > 30 µM | [4] > 30 µM

COCCN1CCN(Cc2ccc(-c3n[nH]c4c3C(=O)c3c(NC(=O)NN5CCOCC5)cccc3-4)cc2)CC1 [RGB-286638]
inactive: [1] > 30 µM | [2] > 30 µM | Septin-9 > 30 µM | [3] > 30 µM | [4] > 30 µM

CC(C)(O)CC(=O)NCCn1ccc2ncnc(Nc3ccc(Oc4cccc(C(F)(F)F)c4)c(Cl)c3)c21 [TAK-285]
inactive: [1] > 30 µM | [2] > 30 µM | Septin-9 > 30 µM | [3] > 30 µM | [4] > 30 µM

C[C@@H]1COC(Nc2ccc3ncnc(Nc4ccc(OCc5nccs5)c(Cl)c4)c3c2)=N1 [VARLITINIB]
inactive: [1] > 30 µM | [2] > 30 µM | Septin-9 > 30 µM | [3] > 30 µM | [4] > 30 µM

O=C(NC[C@H](O)CO)c1ccncc1Nc1ccc(I)cc1F [PIMASERTIB]
inactive: [1] > 30 µM | [2] > 30 µM | Septin-9 > 30 µM | [3] > 30 µM | [4] > 30 µM

Cn1c(=O)n(-c2ccc(C(C)(C)C#N)cc2)c2c3cc(-c4cnc5ccccc5c4)ccc3ncc21 [DACTOLISIB]
inactive: [1] > 30 µM | [2] > 30 µM | Septin-9 > 30 µM | [3] > 30 µM | [4] > 30 µM

Cc1c(NC(=O)OC[C@@H]2COCCN2)cn2ncnc(Nc3ccc4c(cnn4Cc4cccc(F)c4)c3)c12 [AC-480]
inactive: [1] > 30 µM | [2] > 30 µM | Septin-9 > 30 µM | [3] > 30 µM | [4] > 30 µM

COc1cc(Nc2ncc(F)c(Nc3ccc4c(n3)N(COP(=O)(O)O)C(=O)C(C)(C)O4)n2)cc(OC)c1OC [FOSTAMATINIB]
inactive: [1] > 30 µM | [2] > 30 µM | Septin-9 > 30 µM | [3] > 30 µM | [4] > 30 µM

CN1CCN(c2nc(C3=C(c4c[nH]c5ccccc45)C(=O)NC3=O)c3ccccc3n2)CC1 [SOTRASTAURIN]
inactive: [1] > 30 µM | [2] > 30 µM | Septin-9 > 30 µM | [3] > 30 µM | [4] > 30 µM

COc1cccc2cc(-c3nc([C@H]4CC[C@H](C(=O)O)CC4)n4ncnc(N)c34)[nH]c12 [OSI-027]
inactive: [1] > 30 µM | [2] > 30 µM | Septin-9 > 30 µM | [3] > 30 µM | [4] > 30 µM

COc1ccc2c(OCc3nnc4ccc(-c5ccccc5)nn34)ccnc2c1 [AMG-208]
inactive: [1] > 30 µM | [2] > 30 µM | Septin-9 > 30 µM | [3] > 30 µM | [4] > 30 µM

CN(c1ncccc1CNc1nc(Nc2ccc3c(c2)CC(=O)N3)ncc1C(F)(F)F)S(C)(=O)=O [PF-00562271]
inactive: [1] > 30 µM | [2] > 30 µM | Septin-9 > 30 µM | [3] > 30 µM | [4] > 30 µM

COc1cc2ncnc(Nc3ccc(F)c(Cl)c3)c2cc1NC(=O)/C=C/CN1CCCCC1 [DACOMITINIB ANHYDROUS]
inactive: [1] > 30 µM | [2] > 30 µM | Septin-9 > 30 µM | [3] > 30 µM | [4] > 30 µM

CC[C@@](C)(Nc1ccnc(-c2c[nH]c3ncccc23)n1)C(=O)NCC(F)(F)F [DECERNOTINIB]
inactive: [1] > 30 µM | [2] > 30 µM | Septin-9 > 30 µM | [3] > 30 µM | [4] > 30 µM

From ChEMBL document CHEMBL3991601, “The target landscape of clinical kinase drugs” (Science, 2017)
